Measured values taken from ChEMBL document CHEMBL3044766, “Synthesis, antitubercular and antifungal activities of heteroaryl-substituted oxiranes derived from BaylisHillman adducts” (2012).
Activity calls are given as the source filed them. The calls are words filed in the database; no cut-off is given here.

Tests used:
[1] = test system: Mycobacterium tuberculosis; assay: Growth inhibition of Mycobacterium tuberculosis H37Rv at 10 ug/ml after 4 weeks by Lowenstein-Jensen method; assay type: functional, organism-based
Candida albicans = assay: Antifungal activity against Candida albicans at 100 ug/ml after 24 hr by disk diffusion method; assay type: functional; conditions: read-out: DIZ
[2] = test system: Mycobacterium tuberculosis; assay: Growth inhibition of Mycobacterium tuberculosis H37Rv at 1 ug/ml after 4 weeks by Lowenstein-Jensen method; assay type: functional, organism-based
Aspergillus fumigatus = assay: Antifungal activity against Aspergillus fumigatus at 100 ug/ml after 24 hr by disc diffusion method; assay type: functional; conditions: read-out: DIZ
[3] = test system: Mycobacterium tuberculosis; assay: Growth inhibition of Mycobacterium tuberculosis H37Rv at 100 ug/ml after 4 weeks by Lowenstein-Jensen method; assay type: functional, organism-based

SMILES | growth inhibition (GI) [1] | zone of inhibition at 100 µg/mL (Candida albicans) [mm] | growth inhibition (GI) [2] | zone of inhibition at 100 µg/mL (Aspergillus fumigatus) [mm] | growth inhibition (GI) [3]
CCOC(=O)C1(C(O)c2ccco2)CO1 (stereo not given) | Active | 8 | Active | 9 | Active
COC(=O)C1(C(O)c2ccc[nH]2)CO1 (stereo not given) | Active | 9 | Active | 12 | Active
COC(=O)C1(C(O)c2ccco2)CO1 (stereo not given) | Active | 7 | Active | 8 | Active
NC(=O)c1cnccn1 | Active | – | Active | – | Active
Clc1ccccc1C(c1ccccc1)(c1ccccc1)n1ccnc1 [CLOTRIMAZOLE] | – | 20 | – | 21 | –
CCOC(=O)C1(C(O)c2cccs2)CO1 (stereo not given) | Active | 9 | Active | 10 | Active
COC(=O)C1(C(O)c2cccs2)CO1 (stereo not given) | Active | 12 | Active | 12 | Active
CCOC(=O)C1(C(O)c2ccc[nH]2)CO1 (stereo not given) | Active | 10 | Active | 10 | Active
